14 compounds from patent US9139581B2 (PORTOLA PHARMACEUTICALS, INC., priority 2008, dated 2015) can be followed below.

Each structure is given as a SMILES string. A value given as a limit tells only on which side of the number the result lay.

One may read the IC50 as the concentration needed to halve the response being measured.

The target in the first test is T1, full length active recombinant SYK enzyme (Homo sapiens, UniProt P43405).
T1 construct: full length active recombinant SYK enzyme (Millipore, Calif.); purchased Millipore
The experiment in a line: Inhibition of Syk tyrosine phosphorylation activity (LANCE TR-FRET). The class given is biochemical. The conditions noted are these: Table 3; 1 nM SYK, 100 μM ATP; read-out: Syk IC50 code. In a few lines: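 The reaction is quenched with buffer holding Eu-anti-phosphotyrosine and streptavidin-APC, and detection runs 1 hr at room temperature. TR-FRET is read and IC50s come from non-linear regression.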
Background: In TR-FRET formats the signal depends on donor and acceptor labels being close together.
For the compound `CC(=O)N(C)c1ccc(Nc2nc(Nc3cccc(S(N)(=O)=O)c3)c3cc[nH]c3n2)cc1` [Example 68, N-(4-(4-(3-aminosulfonyl-phenylamino)-7H-pyrrolo[2,3-d]pyrimidin-2-ylamino)phenyl)-N-methylacetamide], the IC50 fell in the range of 100 to 1000 nM.

Regarding `CCCCOC(=O)CN(C)S(=O)(=O)c1ccc(Nc2nc(NC3CCC3)c3cc[nH]c3n2)cc1` [Example 53, butyl 2-(4-(4-(cyclobutylamino)-7H-pyrrolo[2,3-d]pyrimidin-2-ylamino)-N-methylphenylsulfonamido)acetate], the IC50 was in the range of 100 to 1000 nM. As to `NC(=O)c1ccc(Nc2nc(NC3CC3)c3c(-c4ccncc4)c[nH]c3n2)cc1` [Example 101, 4-(4-(cyclopropylamino)-5-(pyridin-4-yl)-7H-pyrrolo[2,3-d]pyrimidin-2-ylamino)benzamide], the IC50 is 10 to 100 nM.

In the case of `CC(C)(C)OC(=O)N1CCC(Nc2nc(Nc3ccc4cn[nH]c4c3)nc3[nH]ccc23)CC1` [Example 57, tert-butyl 4-(2-(1H-indazol-6-ylamino)-7H-pyrrolo[2,3-d]pyrimidin-4-ylamino)piperidine-1-carboxylate], the IC50 was more than 1000 nM. Consider `CC(=O)N(C)c1ccc(Nc2nc(NCCCCCN)c3c(Br)c[nH]c3n2)cc1` [Example 67, N-(4-(4-(5-aminopentylamino)-5-bromo-7H-pyrrolo[2,3-d]pyrimidin-2-ylamino)phenyl)-N-methylacetamide], for which the IC50 is more than 1000 nM. Still for that read-out and setting: then `Nc1nc(Nc2ccc(C(=O)O)cc2)nc2[nH]cc(-c3ccncc3)c12` [Example 102, 4-(4-amino-5-(pyridin-4-yl)-7H-pyrrolo[2,3-d]pyrimidin-2-ylamino)benzoic acid], with more than 1000 nM; and `CC(=O)N1CCN(c2ccc(Nc3nc(NCCOCCN)c4cc[nH]c4n3)cc2)CC1` [Example 93, 1-(4-(4-(4-(2-(2-aminoethoxy)amino)-7H-pyrrolo[2,3-d]pyrimidin-2-ylamino)phenyl)piperazin-1-yl)ethanone], with 100 to 1000 nM. The same measure, in the same setting: then `CN(C(=O)CCO)c1ccc(Nc2nc(NC3CC3)c3cc[nH]c3n2)cc1` [Example 87, N-(4-(4-(cyclopropylamino)-7H-pyrrolo[2,3-d]pyrimidin-2-ylamino)phenyl)-3-hydroxy-N-methypropanamide], with 10 to 100 nM; and `NC(=O)c1cnc(-[n+]2ccc(-c3ccc(N)cc3)cc2)nc1NC1CC1` [Example 5, 4-(4-aminophenyl)-1-(5-carbamoyl-4-(cyclopropylamino)pyrimidin-2-yl)pyridinium], with more than 1000 nM; and `CC(=O)N1CCN(c2ccc(Nc3ncc(F)c(N4CCC(NC(=O)CC#N)CC4)n3)cc2)CC1` [Example 136, N-(1-(2-(4-(4-acetylpiperazin-1-yl)phenylamino)-5-fluoropyrimidin-4-yl)piperidin-4-yl)-2-cyanoacetamide], with more than 1000 nM. As for `N#CCC(=O)N1CCCC(Nc2nc(Nc3ccc(C(N)=O)cc3)nc3[nH]ccc23)C1` (centres unmarked) [Example 110, 4-(4-(1-(2-cyanoacetyl)piperidin-3-ylamino)-7H-pyrrolo[2,3-d]pyrimidin-2-ylamino)benzamide], the IC50 is more than 1000 nM. For the compound `CC(=O)N1CCN(c2ccc(Nc3nc(N[C@H](C)CO)c4cc[nH]c4n3)cc2)CC1` [Example 98A, (R)-1-(4-(4-(4-(1-hydroxypropan-2-ylamino)-7H-pyrrolo[2,3-d]pyrimidin-2-ylamino)phenyl)piperazin-1-yl)ethanone], the IC50 fell in the range of 100 to 1000 nM. On the same count and under the same terms, under `CC(=O)N1CCN(c2ccc(Nc3ncc(F)c(N4CCNCC4)n3)cc2)CC1` [Example 124, 1-(4-(4-(5-fluoro-4-(piperazin-1-yl)pyrimidin-2-ylamino)phenyl)piperazin-1-yl)ethanone] stands more than 1000 nM.

The test is the same for the next values; noted with them: Table 4; 1 nM SYK, 100 μM ATP; read-out: syk IC50.
With `NC(=O)C1CCN(c2nc(Nc3ccc(N4CCNCC4)cc3)nc3[nH]ccc23)CC1` [Example 23, 1-(2-(4-(piperazin-1-yl)phenylamino)-7H-pyrrolo[2,3-d]pyrimidin-4-yl)piperidine-4-carboxamide], the IC50 was more than 1000 nM.
